# Assay results reported in patent US20250032438A1, “METHOD FOR ALLEVIATING OXIDATIVE STRESS” (Nissui Corporation, priority 2021, published 2025).
# How the values were obtained:
# [1] = system: Human retinal pigment epithelial cells; test: Example 3: effect of protection from oxidative stress (CCK8 survival after 300 μM hydrogen peroxide); assay type: cell-based; details: compared to the non-treatment condition or arachidonic acid (C20:4n-6) ethyl ester at the same treatment concentration (10 or 30 μM); 24 h pre-incubation, 300 μM hydrogen peroxide 24 h; FIG. 3
# Procedure: The medium was removed by suction, and then exchanged for a medium containing 300 μM hydrogen peroxide, followed by incubation at 37° C. and 5% CO2 for 24 hours. CCK8 (DOJINDO LABORATORIES) was added to each well, and the absorbance of the sample at 450 nm after 1.5 hours was measured.
# [2] = system: Human alveolar epithelial cells; test: Example 2: effect of protection from oxidative stress (CCK8 survival after 800 μM hydrogen peroxide); assay type: cell-based; details: 24 h pre-incubation, 800 μM hydrogen peroxide 8 h, FIG. 2
# Procedure: Human alveolar epithelial cells were seeded on a 96-well microplate at 8×10^3/well, and cultured overnight at 37° C. and 5% CO2. […] The medium was removed by suction, and then exchanged for a medium containing 800 μM hydrogen peroxide, followed by incubation at 37° C. and 5% CO2 for 8 hours. CCK8 (DOJINDO LABORATORIES) was added to each well, and the absorbance of the sample at 450 nm after 1.5 hours was measured. The relative survival rate of each treatment section was calculated, where the absorbance value of a well without hydrogen peroxide treatment was 1. • Test section 1: control • Test section 2: hydrogen peroxide • Test section 3: 10 μM arachidonic acid (C20:4n-6) ethyl ester+hydrogen peroxide • Test section 4: 30 μM arachidonic acid (C20:4n-6) ethyl ester+hydrogen peroxide • Test section 5: 10 μM C32:4n-6 ethyl ester+hydrogen peroxide • Test section 6: 30 μM C32:4n-6 ethyl ester+hydrogen peroxide
# [3] = system: Human retinal pigment epithelial cells; test: Example 4: effect of protection from oxidative stress (CCK8 survival after hydrogen peroxide); assay type: cell-based; details: compared to the non-treatment condition or eicosapentaenoic acid (C20:5n-3) ethyl ester at the same treatment concentration (10 or 30 μM); 24 h pre-incubation, hydrogen peroxide 24 h; FIG. 4
# Procedure: The medium was removed by suction, and then exchanged for a medium containing […] hydrogen peroxide, followed by incubation at 37° C. and 5% CO2 for 24 hours. CCK8 (DOJINDO LABORATORIES) was added to each well, and the absorbance of the sample at 450 nm after 1.5 hours was measured. The relative survival rate of each treatment section was calculated, where the absorbance value of a well without hydrogen peroxide treatment was 1. • Test section 1: control • Test section 2: hydrogen peroxide • Test section 3: 10 μM eicosapentaenoic acid […] ethyl ester+hydrogen peroxide • Test section 4: 30 μM eicosapentaenoic acid […] ethyl ester+hydrogen peroxide • Test section 5: 10 μM C34:5n-3 ethyl ester+hydrogen peroxide • Test section 6: 30 μM C34:5n-3 ethyl ester+hydrogen peroxide
# [4] = system: Human alveolar epithelial cells; details: 800 μM hydrogen peroxide for 1 hour, compared to non-treatment section; FIG. 1
# Procedure: Human alveolar epithelial cells were seeded on a 96-well microplate at 1.5×10^4/well, and cultured overnight at 37° C. and 5% CO2. The medium was removed by suction, and exchanged for a medium containing 40 μM DCFH-DA (Wako Pure Chemical Industries, Ltd.), followed by incubation for 30 minutes. […] The fluorescence intensity at each of 485 nm in excitation and 538 nm in emission was measured with a fluorescence plate reader.
# [5] = compared to the section treated with hydrogen peroxide alone, 10 or 30 μM
compound,measurement,setting,value
CCCCC/C=C\C/C=C\C/C=C\C/C=C\CCCCCCCCCCCCCCCC(=O)OCC [C32:4n-6 ethyl ester],relative cell survival rate after hydrogen peroxide treatment,[1],significantly higher
same,relative cell survival rate after hydrogen peroxide treatment,[2]; compared to arachidonic acid (C20:4n-6) ethyl ester at the same treatment concentration (10 or 30 μM),significantly higher
same,relative cell survival rate after hydrogen peroxide treatment,[2]; [5],significantly higher
CCC=CCC=CCC=CCC=CCC=CCCCCCCCCCCCCCCCCCC(=O)OCC [C34:5n-3 ethyl ester],relative cell survival rate after hydrogen peroxide treatment,[3],significantly higher
"CCCCC/C=C\C/C=C\C/C=C\C/C=C\CCCC(=O)OCC [arachidonic acid (C20:4n-6) ethyl ester, reference compound]",relative cell survival rate after hydrogen peroxide treatment,[2]; [5],significantly lower
OO [hydrogen peroxide],relative production amount of ROS (reactive oxygen species),[4],significantly larger
